In publication PMC7402526, “An in vitro quantitative systems pharmacology approach for deconvolving mechanisms of drug-induced, multilineage cytopenias” (PLoS Computational Biology, 2020):

Experiments:
[1] = tested on: granulocyte-macrophage progenitor (GMPs); test: MLTA, GMPs: concentration-response and QSP model fit; assay type: cell-based, human; details: Homo sapiens, 144 h
In short: (§1)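 Freeze-thawed primary human bone marrow CD34+ cells were grown in SFEM II with a multi-lineage cytokine cocktail, drug added day 0, six days at 37°C. Lineage counts came from 17-parameter flow with TruCount beads, vehicle-normalized per donor, then fitted by an Emax-based QSP model.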

[2] = tested on: granulocyte progenitor (Gran-lin prog); test: MLTA, GranP: concentration-response and QSP model fit; assay type: cell-based, human; details: Homo sapiens, 144 h
In short: as §1

granulocytes (Gran-lin) = test: MLTA, Gran: concentration-response and QSP model fit; assay type: cell-based, human; details: Homo sapiens, 144 h
In short: as §1

[3] = tested on: neutrophils (neutrophil-lin); test: MLTA, Neut: concentration-response and QSP model fit; assay type: cell-based, human; details: Homo sapiens, Neutrophil, 144 h
In short: as §1

MK cells (MK-lin) = test: MLTA, MK: concentration-response and QSP model fit; assay type: cell-based, human; details: Homo sapiens, 144 h
In short: as §1

[4] = tested on: lymphocyte progenitors (LymP); test: MLTA, LymP: concentration-response and QSP model fit; assay type: cell-based, human; details: Homo sapiens, Lymphocyte, 144 h
In short: as §1

[5] = tested on: total viable cells (totalViableCells); test: MLTA, total live cells concentration-response; assay type: cell-based; details: Homo sapiens, 144 h, 6 days, normalized to vehicle control, read-out: total_live normalized cell count
In short: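 Freeze-thawed primary human bone marrow CD34+ cells in SFEM II with cytokine cocktail, drug added day 0, 6 days at 37°C, 5% CO2. Live/dead counts by 17-parameter flow cytometry with DAPI exclusion, bead-normalized, volume-corrected to cells/mL. Normalized per donor to mean of six vehicle wells; 2–7 donors pooled.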

[6] = tested on: human bone marrow-derived CD34+ cells differentiated into multiple hematopoietic lineages; test: MLTA, overall effects across hematopoietic lineages; assay type: cell-based; details: QSP model fit; EmaxT > 1.0 = cell-killing
In short: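 Thawed primary human bone marrow CD34+ cells grown in SFEM II with a multi-lineage cytokine cocktail, drug added day 0, 6 days at 37°C, 5% CO2. Subsets counted by 17-parameter flow cytometry with TruCount beads, normalized to six vehicle wells per donor (2–7 donors); Emax model fitted per cell type.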

[7] = QSP model fit of 6-day MLTA data

SMILES: CC(=O)c1c(C)c2cnc(Nc3ccc(N4CCNCC4)cn3)nc2n(C2CCCC2)c1=O [palbociclib]
- EC50 [1, 7]: 54.6 nM
- activity at 0.0002 µM ([1]; dose 0.2 nM, 6 days, normalized to vehicle control, read-out: GMPs normalized cell count): 92.3%
- activity at 0.001 µM ([1]; dose 1 nM, 6 days, normalized to vehicle control, read-out: GMPs normalized cell count): 94.2%
- activity at 0.005 µM ([1]; dose 5 nM, 6 days, normalized to vehicle control, read-out: GMPs normalized cell count): 92.5%
- activity at 0.025 µM ([1]; dose 25 nM, 6 days, normalized to vehicle control, read-out: GMPs normalized cell count): 76.3%
- activity at 0.1 µM ([1]; dose 100 nM, 6 days, normalized to vehicle control, read-out: GMPs normalized cell count): 53.9%
- activity at 0.5 µM ([1]; dose 500 nM, 6 days, normalized to vehicle control, read-out: GMPs normalized cell count): 23.9%
- activity at 2.5 µM ([1]; dose 2500 nM, 6 days, normalized to vehicle control, read-out: GMPs normalized cell count): 4.62%
- activity at 0.0002 µM ([2]; dose 0.2 nM, 6 days, normalized to vehicle control, read-out: GranPs normalized cell count): 98.2%
- activity at 0.001 µM ([2]; dose 1 nM, 6 days, normalized to vehicle control, read-out: GranPs normalized cell count): 107%
- activity at 0.005 µM ([2]; dose 5 nM, 6 days, normalized to vehicle control, read-out: GranPs normalized cell count): 91.8%
- activity at 0.025 µM ([2]; dose 25 nM, 6 days, normalized to vehicle control, read-out: GranPs normalized cell count): 73.4%
- activity at 0.1 µM ([2]; dose 100 nM, 6 days, normalized to vehicle control, read-out: GranPs normalized cell count): 37%
- activity at 0.5 µM ([2]; dose 500 nM, 6 days, normalized to vehicle control, read-out: GranPs normalized cell count): 8.03%
- activity at 2.5 µM ([2]; dose 2500 nM, 6 days, normalized to vehicle control, read-out: GranPs normalized cell count): 0.794%
- Emax ([2]; parameter from QSP model fitting, read-out: Emax_drug_GranP): 4.7%
- activity at 0.0002 µM (granulocytes (Gran-lin); dose 0.2 nM, 6 days, normalized to vehicle control, read-out: Gran normalized cell count): 94.7%
- activity at 0.001 µM (granulocytes (Gran-lin); dose 1 nM, 6 days, normalized to vehicle control, read-out: Gran normalized cell count): 93.9%
- activity at 0.005 µM (granulocytes (Gran-lin); dose 5 nM, 6 days, normalized to vehicle control, read-out: Gran normalized cell count): 88.2%
- activity at 0.025 µM (granulocytes (Gran-lin); dose 25 nM, 6 days, normalized to vehicle control, read-out: Gran normalized cell count): 53.9%
- activity at 0.1 µM (granulocytes (Gran-lin); dose 100 nM, 6 days, normalized to vehicle control, read-out: Gran normalized cell count): 21.5%
- activity at 0.5 µM (granulocytes (Gran-lin); dose 500 nM, 6 days, normalized to vehicle control, read-out: Gran normalized cell count): 4.56%
- activity at 2.5 µM (granulocytes (Gran-lin); dose 2500 nM, 6 days, normalized to vehicle control, read-out: Gran normalized cell count): 0.37%
- Emax (granulocytes (Gran-lin); parameter from QSP model fitting, read-out: Emax_drug_Gran): 0.0335%
- EC50 [3, 7]: 75 nM
- activity at 0.0002 µM ([3]; dose 0.2 nM, 6 days, normalized to vehicle control, read-out: Neut normalized cell count): 95.1%
- activity at 0.001 µM ([3]; dose 1 nM, 6 days, normalized to vehicle control, read-out: Neut normalized cell count): 93.8%
- activity at 0.005 µM ([3]; dose 5 nM, 6 days, normalized to vehicle control, read-out: Neut normalized cell count): 74.6%
- activity at 0.025 µM ([3]; dose 25 nM, 6 days, normalized to vehicle control, read-out: Neut normalized cell count): 51.7%
- activity at 0.1 µM ([3]; dose 100 nM, 6 days, normalized to vehicle control, read-out: Neut normalized cell count): 21.1%
- activity at 0.5 µM ([3]; dose 500 nM, 6 days, normalized to vehicle control, read-out: Neut normalized cell count): 3.9%
- activity at 2.5 µM ([3]; dose 2500 nM, 6 days, normalized to vehicle control, read-out: Neut normalized cell count): 0.666%
- Emax ([3]; parameter from QSP model fitting, read-out: Emax_drug_Neut): 18.4%
- EC50 (MK cells (MK-lin); [7]): 759 nM
- activity at 0.0002 µM (MK cells (MK-lin); dose 0.2 nM, 6 days, normalized to vehicle control, read-out: MK normalized cell count): 86%
- activity at 0.001 µM (MK cells (MK-lin); dose 1 nM, 6 days, normalized to vehicle control, read-out: MK normalized cell count): 96.6%
- activity at 0.005 µM (MK cells (MK-lin); dose 5 nM, 6 days, normalized to vehicle control, read-out: MK normalized cell count): 89.1%
- activity at 0.025 µM (MK cells (MK-lin); dose 25 nM, 6 days, normalized to vehicle control, read-out: MK normalized cell count): 91.2%
- activity at 0.1 µM (MK cells (MK-lin); dose 100 nM, 6 days, normalized to vehicle control, read-out: MK normalized cell count): 62.2%
- activity at 0.5 µM (MK cells (MK-lin); dose 500 nM, 6 days, normalized to vehicle control, read-out: MK normalized cell count): 23.6%
- activity at 2.5 µM (MK cells (MK-lin); dose 2500 nM, 6 days, normalized to vehicle control, read-out: MK normalized cell count): 7.89%
- Emax (MK cells (MK-lin); parameter from QSP model fitting, read-out: Emax_drug_MK): 7.37%
- activity at 0.0002 µM ([4]; dose 0.2 nM, 6 days, normalized to vehicle control, read-out: LymP normalized cell count): 86.1%
- activity at 0.001 µM ([4]; dose 1 nM, 6 days, normalized to vehicle control, read-out: LymP normalized cell count): 88%
- activity at 0.005 µM ([4]; dose 5 nM, 6 days, normalized to vehicle control, read-out: LymP normalized cell count): 73.1%
- activity at 0.025 µM ([4]; dose 25 nM, 6 days, normalized to vehicle control, read-out: LymP normalized cell count): 38%
- activity at 0.1 µM ([4]; dose 100 nM, 6 days, normalized to vehicle control, read-out: LymP normalized cell count): 12.4%
- activity at 0.5 µM ([4]; dose 500 nM, 6 days, normalized to vehicle control, read-out: LymP normalized cell count): 5.18%
- activity at 2.5 µM ([4]; dose 2500 nM, 6 days, normalized to vehicle control, read-out: LymP normalized cell count): 4.62%
- Emax ([4]; parameter from QSP model fitting, read-out: Emax_drug_LymP): 0.032%
- viability at 0.0002 µM ([5]; dose 0.2 nM): 94.8%
- viability at 0.001 µM ([5]; dose 1 nM): 99.6%
- viability at 0.005 µM ([5]; dose 5 nM): 91.8%
- viability at 0.025 µM ([5]; dose 25 nM): 69.8%
- viability at 0.1 µM ([5]; dose 100 nM): 39.6%
- viability at 0.5 µM ([5]; dose 500 nM): 15.4%
- viability at 2.5 µM ([5]; dose 2500 nM): 6.06%
- EmaxT effects across cell types (overall statement) [6]: anti-proliferation effects on essentially just the HSCs and GMPs
